Measured values published in PubChem BioAssay (NCI).
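The compound was tested at five concentrations on cells cultured in 96-well plates, with a 48-hour exposure period. GI50: concentration for 50% inhibition of growth. At the TGI there is no net growth.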

How the values were obtained:
Test in all cases: DTP human tumour cell line panel, 48 h
K-562 leukemia = system: K-562 leukemia
IGROV1 ovarian = system: IGROV1 ovarian
M14 melanoma = system: M14 melanoma
HCC-2998 colon = system: HCC-2998 colon
SN12C renal = system: SN12C renal
786-0 renal = system: 786-0 renal
SF-268 CNS = system: SF-268 CNS
OVCAR-8 ovarian = system: OVCAR-8 ovarian
A498 renal = system: A498 renal
NCI-H522 lung = system: NCI-H522 lung

Row | SMILES | GI50 (K-562 leukemia) [µM] | TGI (K-562 leukemia) [µM] | GI50 (IGROV1 ovarian) [µM] | TGI (IGROV1 ovarian) [µM] | GI50 (M14 melanoma) [µM] | TGI (M14 melanoma) [µM] | GI50 (HCC-2998 colon) [µM] | TGI (HCC-2998 colon) [µM] | GI50 (SN12C renal) [µM] | TGI (SN12C renal) [µM] | GI50 (786-0 renal) [µM] | TGI (786-0 renal) [µM] | GI50 (SF-268 CNS) [µM] | TGI (SF-268 CNS) [µM] | GI50 (OVCAR-8 ovarian) [µM] | TGI (OVCAR-8 ovarian) [µM] | GI50 (A498 renal) [µM] | TGI (A498 renal) [µM] | GI50 (NCI-H522 lung) [µM] | TGI (NCI-H522 lung) [µM]
1 | CCn1c(-c2nonc2N)nc2c(C#CC(C)(C)O)ncc(OCC3CCNCC3)c21 | > 25 | > 25 | 1.34 | > 25 | 13.4 | > 25 | 11.4 | > 25 | 9.17 | > 25 | 6.11 | 24.6 | 9.41 | > 25 | 9.68 | > 25 | 0.384 | 12.7 | 9.07 | > 25
2 | CC1(C)CC(=O)C=C(NC(=O)c2ccccc2)C1 |  | > 100 |  | > 100 |  | > 100 |  | > 100 |  | > 100 |  | > 100 |  | > 100 |  | > 100 |  | > 100 |  | > 100
3 | Nc1ccc(C(=O)N/C(=C\c2ccc3c(c2)OCO3)c2nc3ccc4c(c3[nH]2)C(=O)c2ccccc2C4=O)cc1 |  | > 100 |  | > 100 |  | > 100 |  | > 100 |  | > 100 |  | 72.2 |  | > 100 |  | > 100 |  | 93.9 |  | 71.9
4 | Cc1cncc2cccc(S(=O)(=O)N3CCCNC[C@@H]3C)c12 | 50 | > 100 | 48.8 | > 100 | > 93.4 | > 100 | > 88.9 | > 100 | 24.8 | > 100 | 14.6 | > 100 | 4.91 | > 81.8 | 38.9 | > 100 | 1.61 | 17.7 | > 23.1 | > 100
5 | C=C1C(=O)O[C@H]2[C@H]1CC/C(COC(=O)c1ccc(Br)cc1)=C\CC[C@@]1(C)O[C@@H]21 | 1.2 | 10.3 | 1.27 | 2.83 | 1.47 | 3.2 | 2.05 | 4.27 | 1.63 | 3.69 | 1.62 | 3.09 | 1.55 | 3.14 | 1.87 | 5 | 11 | 23.7 | 1.33 | 2.8
